Experimental data reported in patent publication US20230212517A1, “METHODS FOR GENERATING HEMATOPOIETIC STEM CELLS” (The Brigham and Women's Hospital, Inc., priority 2018, published 2023).

Columns and labels:
[1] = tested on: bone marrow-derived Cd71+ Ter119+ sorted (donor) erythroid cells; test: qRT-PCR of globin transcripts in donor erythroid cells of primary transplant; assay type: in vivo, mouse; conditions: primary transplant of treated E11.5 AGM
Description: Pulsating blood vessels like conditions were stimulated in vitro using FLEXCELL FX-4000 cell stretching bioreactor machine. To analyze roles of pharmacological targets in regulating the endothelial-to-HSC transition, mouse embryo-derived AGM or whole mouse embryo were exposed ex vivo with biomechanical stretching, chemicals, or drugs. Next, hematopoietic colony formation assays were performed by incubating mouse AGM-derived cells in StemCell M3434 media for seven days. Serial transplantation of AGM-derived HSCs in lethally irradiated SJL mice were performed. The stem cell frequency upon biomechanical stretching was analyzed using a limiting dilution assay. To characterize properties of AGM-HSC-derived blood cells in primary transplants, percentage chimerism and reconstitution was measured using FACS, globin transcripts were analyzed using quantitative reverse transcriptase-PCR, myeloperoxidase amount was measured using PICOKINE ELISA kit, TCR-β rearrangement was analyzed using PCR for TCR-β locus, pre-immune IG detection was analyzed using Thermo-Fisher Mouse Ig Isotyping kit, and delayed-type hypersensitivity was analyzed by injecting sheep RBC (Rockland Immunochemicals) in the footpad of pre-sensitized mice.
FACS was used to sort erythroid precursors (Cd45.2^+, Ter119^+, Cd71^+) from the unlysed bone marrow isolated from AGM-transplanted mice. […]

[2] = tested on: human iPSC-derived HE cells; test: Endothelial-to-hematopoietic transition in human iPSC-derived HE cells (FACS, CD34/CD45); assay type: cell-based; conditions: Yoda1 between 6.25 and 100 μM
Description: Embryoid body and hemogenic endothelium differentiation was performed as described in (Sugimura et al. 2017; Ditadi et al. 2015). Briefly, hiPSC colonies were dissociated with 0.05% trypsin for 5 min at 37° C., washed with PBS+2% FBS, and resuspended in STEMPRO-34 medium (Invitrogen, 10639-011) supplemented with L-glutamine (2 mM), penicillin/streptomycin (10 ng/ml), ascorbic acid (1 mM), human holo-Transferrin (150 μg/ml, Sigma T0665), monothioglycerol (MTG, 0.4 mM), BMP4 (10 ng/ml), and Y-27632 (10 μM). Five million cells were seeded into 10 cm dishes (Ezsphere, Asahi Glass) for the spheroid formation. On Day 1, bFGF (5 ng/ml) and BMP4 (10 ng/ml) was added to the medium. On Day 2, the media was changed with the STEMPRO-34 supplemented with SB431542 (6 μM), CHIR99021 (3 μM), bFGF (5 ng/ml), and BMP4 (10 ng/ml). On Day 3, the medium was replaced with STEMPRO-34 supplemented with VEGF (15 ng/ml) and bFGF (10 ng/ml). On day 6, the medium was changed to STEMPRO-34 supplemented with bFGF (5 ng/ml), VEGF (15 ng/ml), interleukin (IL)-6 (10 ng/ml), IGF-1 (25 ng/ml), IL-11 (5 ng/ml), SCF (50 ng/ml) and EPO (2IU). The cells were maintained in a 5% CO2, 5% O2 and 95% humidity incubator. […]

## Clc1cccc(Cl)c1CSc1nnc(-c2cnccn2)s1 [Yoda1, 2-[5-[[(2,6-Dichlorophenyl)methyl]thio]-1,3,4-thiadiazol-2-yl]-pyrazine]
[1]
  hemoglobin type (β-major adult, εγ and β-H1 embryonic) expressed in donor erythroid cells: reconstitutes to red cells containing adult hemoglobin
[2]
  dose dependence of the endothelial-to-hematopoietic transition: dose dependent
[2]; 7 days, data not shown
  endothelial-to-hematopoietic transition: induced the endothelial-to-hematopoietic transition
